Results on twelve compounds are retold here after ChEMBL document CHEMBL1158520, “Aryl- and heteroaryl-substituted aminobenzo[a]quinolizines as dipeptidyl peptidase IV inhibitors” (Bioorg Med Chem Lett, 2010).

For one series, the target named is Dipeptidyl peptidase 4 (Homo sapiens, UniProt P27487). In words: Inhibition of DPP4.
The nature of series [1]: Clearance in Wistar rat at 1 mg/kg, iv. Format: ADME, organism-based. More on the design: dose 1 mg/kg, route intravenous. As to conditions: in vivo.
Series [2] can be described thus: Volume of distribution at steady state in Wistar rat at 1 mg/kg, iv. More on the design: dose 1 mg/kg, route intravenous. Format: ADME, organism-based. As to conditions: in vivo, read-out: Vdss.
Series [3] can be described thus: Half life in Wistar rat at 1 mg/kg, iv. As to conditions: in vivo. The format is ADME, organism-based. More on the design: dose 1 mg/kg, route intravenous.
A short description of series [4]: Oral bioavailability in Wistar rat at 3 mg/kg. The format is ADME, organism-based. As to conditions: in vivo.
Series [5] in a line: Ratio of drug level in brain to plasma of Wistar rat. Format: ADME.
Series [6] relates to Rattus norvegicus. Description: Reduction of blood glucose level in po dosed Zucker fatty (fa/fa) rat administered 2 hrs before glucose challenge measured after 40 mins glucose challenge by oral glucose tolerance test. The format is functional, organism-based.
Series [7] can be described thus: Distribution coefficient, log D at pH 7.4. The format is physicochemical. As to conditions: octanol/water.
A further series relates to Phospholipidosis. Description: Minimal effective concentration for in vitro drug-induced phospholipidosis in fibroblasts. Format: ADME, cell-based. As to conditions: fibroblast.
The subject of series [8] is Rattus norvegicus. Description: Reduction of blood glucose level in Zucker fatty (fa/fa) rat at 0.3 mg/kg, po administered 2 hrs before glucose challenge measured after 40 mins glucose challenge by oral glucose tolerance test. More on the design: scale not given: the % may be the effect or the level left. The format is functional.
Series [9] is described as follows: Mutagenic activity in Salmonella Typhimurium. The format is toxicity. As to conditions: salmonella enterica subsp. enterica serovar typhimurium.

The structures appear in SMILES notation.

Sequence of Dipeptidyl peptidase 4 (P27487 whole entry): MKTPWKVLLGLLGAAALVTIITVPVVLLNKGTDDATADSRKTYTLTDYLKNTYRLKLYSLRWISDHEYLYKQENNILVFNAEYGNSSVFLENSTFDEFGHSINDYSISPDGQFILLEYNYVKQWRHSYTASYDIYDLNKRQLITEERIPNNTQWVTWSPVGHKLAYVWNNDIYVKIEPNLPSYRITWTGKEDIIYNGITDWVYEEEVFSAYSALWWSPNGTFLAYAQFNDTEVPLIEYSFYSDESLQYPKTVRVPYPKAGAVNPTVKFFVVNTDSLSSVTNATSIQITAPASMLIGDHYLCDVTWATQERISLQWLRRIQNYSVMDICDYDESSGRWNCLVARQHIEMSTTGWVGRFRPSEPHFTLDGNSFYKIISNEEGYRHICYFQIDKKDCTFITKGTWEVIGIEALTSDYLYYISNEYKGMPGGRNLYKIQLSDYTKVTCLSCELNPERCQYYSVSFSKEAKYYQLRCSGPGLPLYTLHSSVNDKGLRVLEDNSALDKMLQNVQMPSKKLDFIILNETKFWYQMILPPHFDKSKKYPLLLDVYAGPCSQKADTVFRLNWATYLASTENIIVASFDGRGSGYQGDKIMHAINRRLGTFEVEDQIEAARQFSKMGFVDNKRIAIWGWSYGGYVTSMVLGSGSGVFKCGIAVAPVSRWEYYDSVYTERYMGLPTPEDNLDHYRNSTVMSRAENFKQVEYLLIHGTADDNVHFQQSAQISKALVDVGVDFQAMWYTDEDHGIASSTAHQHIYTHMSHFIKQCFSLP

`COc1cc2c(cc1OC)[C@@H]1C[C@H](N)[C@@H](c3cc(C)ccn3)CN1CC2` registered an IC50 against Dipeptidyl peptidase 4 of 11 nM. In [1], this compound had a clearance of 118 mL/min/kg. Moreover, the Vd in [2] stood at 12 L/kg. For the same compound, the half-life in [3] is 1.4 h. In [4], this compound had a bioavailability of 50%. Also, the Kp in series [5] was determined as 0.7. In addition, the Activity entry in the series with Rattus norvegicus [6] was “Dose-dependent effect”.
As for `COc1cc2c(cc1OC)[C@H]1C[C@@H](N)[C@H](c3cc(C)ccn3)CN1CC2`, the IC50 on Dipeptidyl peptidase 4 came out at 53000 nM.
In series [7], `COc1cc2c(cc1OC)[C@@H]1CC(N)[C@@H](c3ccccc3)CN1CC2` (mixture of isomers) registered a logD of 0.8. The compound also displayed a Phospholipidosis_MEC with Phospholipidosis of 5 µM.
As to `COc1cc2c(cc1OC)[C@@H]1CC(N)[C@@H](c3cccc(C)c3)CN1CC2` (mixture of isomers), the logD in [7] was determined as 1.3. The same compound returned a Phospholipidosis_MEC in the series on Phospholipidosis of 2.5 µM. The Activity in the series with Rattus norvegicus [8] was found to be 41%. Further, the clearance in series [1] turned out to be 87 mL/min/kg. Also, the Vd in [2] stood at 42 L/kg. In addition, the half-life in series [3] was 6.9 h. The compound further showed a bioavailability in [4] of 56%. The Kp in series [5] was found to be 5.8.
For `COc1cc2c(cc1OC)[C@@H]1CC(N)[C@@H](c3cccc(Cl)c3)CN1CC2` (mixture of isomers), the logD in series [7] is 1.7.
In turn, `COc1cc2c(cc1OC)[C@@H]1CC(N)[C@@H](c3cccc(C4CC4)c3)CN1CC2` (mixture of isomers) registered an IC50 at Dipeptidyl peptidase 4 of 38 nM. In [7], this compound returned a logD of 1.8.
As for `COc1cc2c(cc1OC)[C@@H]1CC(N)[C@@H](c3cccc(C(C)C)c3)CN1CC2` (mixture of isomers), at Dipeptidyl peptidase 4, the IC50 worked out at 5500 nM. The logD in [7] worked out at 2.
Turning to `COc1cc2c(cc1OC)[C@@H]1CC(N)[C@@H](c3cccc(CF)c3)CN1CC2` (mixture of isomers), the logD in [7] came out at 1.6.
As for `CCc1cccc([C@H]2CN3CCc4cc(OC)c(OC)cc4[C@@H]3CC2N)c1` (mixture of isomers), the IC50 against Dipeptidyl peptidase 4 is 61 nM. The compound also displayed a logD in series [7] of 1.7.
For `COc1cc2c(cc1OC)[C@@H]1CC(N)[C@@H](c3cc(CF)ccn3)CN1CC2` (mixture of isomers), inhibition on Dipeptidyl peptidase 4 was half-maximal at 1.2 nM (IC50). Moreover, the pH-dependent lipophilicity (logD) in series [7] worked out at 0.1. Also, the Activity result in series [9] is “Toxic”.
Consider `COc1cc2c(cc1OC)[C@@H]1CC(N)[C@@H](c3cc(C)ccn3)CN1CC2` (mixture of isomers), for which half-maximal inhibition against Dipeptidyl peptidase 4 (IC50) was put at 19 nM. In [7], this compound returned a logD of 0.3. In addition, the Phospholipidosis_MEC with Phospholipidosis came out at 15 µM.
Turning to `COc1cc2c(cc1OC)[C@@H]1CC(N)[C@@H](c3cc(C)ccc3C)CN1CC2` (mixture of isomers), on Dipeptidyl peptidase 4, 1.7 nM corresponded to half-maximal inhibition (IC50). For the same compound, in series [7], the log distribution coefficient (logD) came to 1.6.

Usually IC50 stands for the concentration needed to halve the response being measured. For orientation: clearance means the rate of elimination divided by the concentration. The term half-life denotes the time needed for the level to fall by half in the phase considered. A word on the bioavailability: it is dose-corrected exposure relative to a reference, in per cent. One may read the Kp as the ratio of the level in a tissue or fluid to that in plasma or blood. As usually defined, the logD is lipophilicity at a set pH, counting ionised and neutral species.
